# From patent US20030224503A1, “In-situ microorganism generation for treating subsurface DNAPL source zones” (priority 2002, published 2003)
# System: groundwater microorganisms
# Conditions: both DNAPL test sites (MW-12R, RW-1)
# From the text: The test sites are located at a property where fractured bedrock has been contaminated with PCE and TCE DNAPL to a depth of approximately 120 feet below ground surface.
compound,measurement,setting,value
CC(=O)O [acetic acid],adaptation of groundwater microorganisms,"after injection of acetic acid, FIG. 4",increased
same,change in biomass of groundwater microorganisms,"fractured bedrock, after vs before injection of acetic acid, FIG. 3",increased
